Assays:
[1] = 52-week twice daily oral (gavage) toxicity study of deferiprone in non-iron-loaded monkeys; format: in vivo, cynomolgus monkeys
Procedure: As part of a larger study on the potential toxicity of iron chelators, we evaluated the toxicity of deferiprone in normal monkeys receiving 150 mg/kg/day (75 mg/kg twice daily) for 1 year.
To determine the toxicity of deferiprone in non-iron-loaded cynomolgus monkeys following twice daily oral (gavage) administration for 52 consecutive weeks, and to evaluate the regression of any toxic effect during a 4-week treatment-free period.
Groups of 4 male and 4 female monkeys (2 to 3 years old) were dosed by nasogastric intubation at (0.5% w/v aqueous carboxymethylcellulose vehicle) 75 mg/kg deferiprone twice daily (bid), with 6-8 hours between doses, for at least 364 days.
Clinical signs, body weights and food intake were assessed at frequent intervals. Ophthalmological and cardiovascular examinations were carried out in Weeks 17, 30, 43, 56 and 60. Hematology, coagulation, clinical chemistry and urine parameters were measured at baseline and in Weeks 8, 16, 30, 41, 56 and 60. Blood samples were taken on the first day of dosing, and in Weeks 17 and 56 for assessment of the serum deferiprone time-concentration profile. A full necropsy was performed on each animal, selected organs weighed, and histopathological examination of abnormalities and selected tissues conducted.

[2] = test system: iron accumulation in dentate nuclei; test: MRI R2* measurement of brain iron in the pilot trial; format: in vivo, human; conditions: 20-30 mg/kg/day oral, patients before 17.4±1.6, controls 13.7±0.6
Description: Multiple-gradient echo sequence was used to monitor the iron concentrations in the brain (Waldvogel et al. Increased iron in the dentate nucleus of patients with Friedrich's ataxia. Ann Neurol 1999; 46:123-5), using a 1.5T Signa unit (GE Medical Systems, Milwaukee, Wisc., USA) using phase array head coil. Deep gray structures were localized by using a T2*-weighted echo-planar sequence (TR 3000 ms, TE 60 ms, eight averages, field of view: 24 cm, 256×224 matrix and slice thickness : 5 mm, 24 slices/1.1 min). A voxel englobing the left and right nuclei was positioned on the largest section of dentate nuclei (dimensions 6×3×2 cm^3). Data acquisition allowing iron monitoring was performed by using a single-slice multi-gradient-echo sequence (TR: 400 ms, flip angle: 50° to maximize gray matter signal, acquisition time: 3 minutes).
The determination of R2* was performed by using data of the multi-gradient echo sequence. In each pixel, the signals Si of the ten images obtained at echo times TEi (−i=1.10) were used to calculate the parameter R2* by adjustment of the signal decay according to the equation Si=So.exp (−R2*.TEi). A parametric image of local R2* values was calculated with the same spatial resolution than the native images. The mean value of R2* was calculated in various regions of interest, all determined by the same experimental radiologist. […]

[3] = Pilot trial: adverse events and biological parameters (hemoglobin, plasma iron, ferritin); format: in vivo, human
Description: Ten adolescents (four males, six females aged 14 to 23 yrs) with a diagnosis of Friedreich ataxia, confirmed by detection of a trinucleotide-repeat expansion in the first intron of the frataxin gene, were studied. Patients received deferiprone (Ferriprox™, Apotex Inc., Toronto, Canada) orally, in two doses for 1-5 months. Three patients were included, sequentially, for a minimum period of two months at each dose. Patient enrollment was staggered by two-weeks to enable monitoring of response. In the absence of toxicity, and with evidence of efficacy in any of the first 3 patients, a second group of 3 patients would be included at the same dose for a total duration of 6 months. If there was an absence of both efficacy and toxicity, the second group of three patients would be administered a higher dose. If toxicity developed, the current dose would be suspended and the trial resumed with the next group of patients at a lower dose. The patients were on idebenone (10 mg/kg/day, in three doses) for at least two years prior to inclusion and were kept on the drug at the same dose for the duration of the trial. MRI examinations were done at inclusion and at 1, 2, 4 and 6 months. The protocol was promoted by Assistance Publique-Hopitaux de Paris and approved by the local ethical committee and registered at the National Health Authority (AFSSAPS) and at the International Protocol Registration System (www.clinicaltrials.gov). A written informed consent was obtained from patients and parents.
The International Cooperative Ataxia Rating Score (ICARS) was used to assess the symptoms of ataxia before and after 1-5 months (Cano et al. International cooperative ataxia rating scale (ICARS): Appropriate for studies of Friedreich's ataxia? Mov Disord 2005; 20:1585-91). […] Patients were monitored for neutropenia, agranulocytosis, musculoskeletal pains and zinc deficiency and had weekly blood counts, plasma iron, serum ferritin and transferrin concentration measurements, as well as assessments of renal and liver function.

[4] = test system: intracellular iron pools of macrophages, hepatocytes, and cardiomyocyte cell lines; conditions: living cells, fluorescence probes; cited from earlier work

## Cc1c(O)c(=O)ccn1C [Deferiprone, 3-hydroxy-1,2-dimethylpyridin-4-one]
[1]; 75 mg/kg twice daily orally for 52 weeks
  adverse effect (conclusion): without significant adverse effect
[1]; 75 mg/kg twice daily, 52 weeks
  Clinical signs: incidental to administration of deferiprone by the IP route
[1]; 75 mg/kg twice daily, oral gavage, 52 weeks
  deferiprone-related effects on body weight, food intake, ophthalmology, cardiac conduction, blood pressure, heart rate, hematology or urine composition: no deferiprone-related effects
[1]; 75 mg/kg twice daily, oral gavage, 52 weeks, histopathology
  microscopic findings: No microscopic findings
[1]; 75 mg/kg twice daily, oral gavage, 52 weeks, necropsy
  macroscopic findings: No macroscopic findings related to deferiprone
[2]; after one month
  relaxation rate R2* in dentate nuclei: 16.6 ± 1.3 s⁻¹
[2]; after two months
  relaxation rate R2* in dentate nuclei: 15.9 ± 0.6 s⁻¹
[3]; 20 mg/kg/day oral
  signs of toxicity: without signs of toxicity, other than minor adverse effects, such as nausea
[3]; 80 mg/kg/day oral, first patient (P1), terminated at day 17, slowly reversed on drug termination
  adverse events: fatigue, headache, nausea, dizziness, then floppiness, poor head control, abnormal eye movements and fluctuating consciousness
[3]; regardless of the dose (20 and 30 mg/kg/day)
  impact on the levels of hyposideremic anemia and hypoferritinemia: negligible impact
[4]
  access to intracellular iron pools / chelation: readily enter most cells and efficiently reach the major intracellular sites of iron accumulation
